Results reported in patent US20110166223A1, “METHODS OF INHIBITING FGFR3 SIGNALING” (CEDARS-SINAI MEDICAL CENTER, priority 2008, published 2011).

Experiments:
[1] = Water solubility (statement); format: physicochemical
[2] = molecular target: T1, recombinant tyrosine kinase (TK) domain of FGFR3 (Homo sapiens, UniProt P22607); test: Cell-free FGFR3 kinase assay with STAT1 as substrate; format: biochemical; conditions: for effect on FGFR3 kinase activity (in words): added directly to the kinase reaction, FIG. 4
T1 construct: recombinant tyrosine kinase (TK) domain of FGFR3 (Glu-322-Thr-806; Cell Signaling); purchased Cell Signaling
Method: FIG. 4, in accordance with an embodiment herein, depicts 4,4′,4″,4′″-[carbonyl-bis[imino-5,1,3-benzenetriyl bis-{carbonylimino}]]tetrakis-{benzene-1,3-disulfonic acid} inhibits FGFR3 activity in a kinase assay. (a, b) Cell-free kinase assays were carried out as described herein, with recombinant tyrosine kinase (TK) domain of FGFR3 as a kinase, recombinant STAT1 as a substrate, and NF449 added directly to the kinase reaction. FGFR3-mediated phosphorylation of STAT1 was detected by WB with P-STAT1 (Y^701) antibody. The membrane was reprobed with FGFR3 and STAT1 antibodies to control for kinase and substrate quantity. The sample with ATP omitted serves as a negative control for the kinase reaction. Note the FGFR3-mediated phosphorylation of STAT1 is inhibited by 4,4′,4″,4′″-[carbonyl-bis[imino-5,1,3-benzenetriyl bis-{carbonylimino}]]tetrakis-{benzene-1,3-disulfonic acid}. The P-STAT1 and STAT1 signal was quantified by densitometry and expressed as a ratio between P-STAT1 and STAT1 signal for each given sample (b, lower graph). (c) The FGFR3 kinase assay was carried-out as described in (a) with 4,4′,4″,4′″-[carbonyl-bis[imino-5,1,3-benzenetriyl bis-{carbonylimino}]]tetrakis-{benzene-1,3-disulfonic acid}, 8,8′-[carbonylbis[imino-3,1-phenylenecarbonylimino{4-methyl-3,1-phenylene}carbonylimino]]bis-1,3,5-naphthalenetrisulfonic acid or 8,8′-[carbonylbis[imino-3,1-phenylene]]bis-{1,3,5-naphthalenetrisulfonic acid} added to the kinase reaction. Note the differential effects of 8,8′-[carbonylbis[imino-3,1-phenylenecarbonylimino{4-methyl-3,1-phenylene}carbonylimino]]bis-1,3,5-naphthalenetrisulfonic acid and 8,8′-[carbonylbis[imino-3,1-phenylene]]Bis-{1,3,5-naphthalenetrisulfonic acid} on the FGFR3-mediated phosphorylation of STAT1, which corresponds to their activity in the RCS growth-arrest experiment (lower graph). Data are an average from four wells with the indicated standard deviation. Statistically significant rescue of the growth arrest is indicated (Student's I-test; *-p<0.01).
OPM2 and KMS11 cells were lysed in ice-cold immunoprecipitation buffer (50 mM Tris-HCl pH 7.4, 150 mM NaCl, 0.5% NP-40, 1 mM EDTA, 25 mM NaF) supplemented with proteinase inhibitors and 10 mM sodium orthovanadate. Protein samples were resolved by SDS-PAGE and transferred onto a PVDF membrane. The following antibodies were used: Erk1/2, P-Erk1/2^T202/Y204, STAT1, P-STAT1^Y701 (Cell Signaling, Beverly, Mass.) and FGFR3 (Santa Cruz Biotechnology, Santa Cruz, Calif.). Western blotting signal was quantified by determining the integrated optical density (I.O.D.) of a given band using Scion Image software (Scion Corporation, Frederick, Mass.). Immunoprecipitations and FGFR3 kinase assays were performed as described. Briefly, the pRK7 vector encoding C-terminally FLAG-tagged K650E-FGFR3 was transfected into CHO cells using FuGENE6 reagent according to the manufacturer's protocol (Roche Applied Science, Indianapolis, Ind.). 48 hours after transfection, cells were treated with 20 ng/ml of FGF2 for 15 minutes and K650E-FGFR3 was immunoprecipitated from 800 μg of cell lysate protein using 4 μg of anti-FLAG antibody (Sigma-Aldrich, St. Louis, Mo.). Cells transfected with a plasmid encoding green fluorescent protein (pCCEY) serve as a negative control for the immunoprecipitation. Immunocomplexes were washed two times with kinase buffer (60 mM HEPES-NaOH pH 7.5, 3 mM MgCl2, 3 mM MnCl2, 3 μM Na3VO4, 1.2 mM dithiothreitol), and the kinase reactions were performed for 30 minutes at 30° C. in the presence of 2.5 μg of polyethylene glycol, 10 μM ATP, 300 ng of recombinant STAT1 (Active Motif, Carlsbad, Calif.) as a substrate, and NF449 added directly to the kinase reaction. Kinase assays utilizing recombinant tyrosine kinase (TK) domain of FGFR3 (Glu-322-Thr-806; Cell Signaling) were carried-out similarly, with 300 ng of kinase used in 50 μl reaction, and suramin, NF449 and NF023 added directly to the kinase reaction. […]

[3] = tested on: FGF2-mediated extracellular matrix loss in RCS chondrocytes; test: Alcian blue staining of extracellular matrix in RCS chondrocytes; format: cell-based, rat; conditions: FGF2 5 ng/ml, NF449 20 μM, 72 hours, FIG. 2a
Method: For Alcian blue staining, growing RCS cultures were treated with FGF2 (5 ng/ml) alone or in the presence of NF449 (20 μM) for 72 hours, fixed with 4% paraformaldehyde and stained for 30 minutes with Alcian blue. For quantification of the FGF2/FGFR3-mediated extracellular matrix loss, RCS chondrocytes were treated with FGF2 (5 ng/ml) and NF449 (20 μM) for 72 hours in the presence of 10 μCi/ml of [^35S]sulfate (Perkin Elmer, Boston, Mass.). Following the cultivation period, cells were harvested and the incorporated radioactivity was determined by liquid scintillation.
Apart from the growth arrest, aberrant FGFR3 signaling in chondrocytes leads to the loss of their extracellular matrix, rich in sulfated proteoglycans, due to inhibition of matrix synthesis as well as degradation of the existing matrix. The inventors therefore evaluated whether NF449 rescues the extracellular matrix loss induced by FGFR3 activation. […] Similar to previous findings, this matrix was lost after the 72-hours of FGF2 treatment. […] To further confirm this observation, cells were incubated with [^35S]sulfate for 72 hours to label the extracellular matrix and determined the effect of FGF2 and NF449 on the cell-bound radioactivity.

[4] = listed as 4,4′,4″,4′″-[carbonyl-bis[imino-5,1,3-benzenetriyl bis-{carbonylimino}]]tetrakis

T1 sequence (P22607 322-806): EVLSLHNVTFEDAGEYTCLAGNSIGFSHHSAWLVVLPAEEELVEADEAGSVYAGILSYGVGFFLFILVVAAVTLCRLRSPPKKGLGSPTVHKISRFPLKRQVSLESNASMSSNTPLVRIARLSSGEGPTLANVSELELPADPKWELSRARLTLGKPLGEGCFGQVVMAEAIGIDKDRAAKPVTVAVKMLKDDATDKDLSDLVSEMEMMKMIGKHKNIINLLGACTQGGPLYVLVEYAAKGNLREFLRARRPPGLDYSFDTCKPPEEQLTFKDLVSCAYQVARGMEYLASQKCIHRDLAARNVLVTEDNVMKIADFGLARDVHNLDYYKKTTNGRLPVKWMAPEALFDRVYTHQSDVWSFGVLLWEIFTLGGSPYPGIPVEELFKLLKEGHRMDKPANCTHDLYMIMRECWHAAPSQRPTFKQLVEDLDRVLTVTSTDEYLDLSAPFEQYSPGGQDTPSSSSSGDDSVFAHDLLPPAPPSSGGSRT

SMILES: O=C(Nc1cc(C(=O)Nc2ccc(S(=O)(=O)O)cc2S(=O)(=O)O)cc(C(=O)Nc2ccc(S(=O)(=O)O)cc2S(=O)(=O)O)c1)Nc1cc(C(=O)Nc2ccc(S(=O)(=O)O)cc2S(=O)(=O)O)cc(C(=O)Nc2ccc(S(=O)(=O)O)cc2S(=O)(=O)O)c1 [NF449, 4,4′,4″,4′″-[carbonyl-bis[imino-5,1,3-benzenetriylbis-{carbonylimino}]]tetrakis-{benzene-1,3-disulfonic acid}]
- water solubility [1]: water-soluble
- inhibition of FGFR3 kinase activity ([2]; 0.1-30 μM range, FIG. 4b): some inhibition of FGFR3 kinase activity at all concentrations
- FGFR3-mediated tyrosine phosphorylation of STAT1 ([2]; 5-30 μM NF449 concentration range, FIG. 4a): inhibited at all concentrations
- concentration necessary to achieve more than 50% inhibition of FGFR3 kinase activity ([2]; FIG. 4b, densitometry P-STAT1/STAT1): ≥ 2 µM
- effect on FGFR3 kinase activity (in words) [2]: inhibited the FGFR3-mediated tyrosine phosphorylation of STAT1
- effect on FGFR3 kinase activity (in words) [2, 4]: inhibited
- concentration range inhibiting FGFR3 kinase activity ([2]; comparison with SU5402): 2 to 20 µM
- FGF2-induced cellular shape change [3]: rescued
- FGF2-mediated extracellular matrix loss, Alcian blue staining [3]: equaled that of the control cells
- FGF2-mediated extracellular matrix loss, Alcian blue staining [3, 4]: reversed
